From patent US7638540B2, “Benzofuran compound and medicinal composition containing the same” (The New Industry Research Organization, priority 2003, dated 2009)

## CCN(CC)C(=O)/C=C(\C)c1ccc2oc(C(=O)Nc3cccc(OC)c3)c(NC(=O)c3cnoc3C)c2c1 [Example 186, (E)-5-methyl-isoxazole-4-carboxylic acid [5-((E)-2-diethylcarbamoyl-1-methylvinyl)-2-(3-methoxyphenylcarbamoyl)benzofuran-3-yl]amide]
  melting point: 204 to 206 °C

## COc1cccc2cc(/C(Cl)=C/C=C/C(=O)N3CCOCC3)oc12 [Example 138, (2E,4Z)-5-chloro-5-(7-methoxybenzofuran-2-yl)-1-morpholin-4-ylpenta-2,4-dien-1-one]
  melting point: 185.4 to 186.6 °C

## COc1ccc(NC(=O)/C=C(\C)c2cc3cccc(OC(C)c4ccccc4)c3o2)cc1 (stereo not shown) [Example 172, (E)-3-[7-(1-phenylethoxy)benzofuran-2-yl]-2-butenoic acid (4-methoxyphenyl)amide]
  melting point: 120 to 125 °C

## COc1ccc(CCNC(=O)/C=C/C=C(\Cl)c2cc3cccc(OCCCCl)c3o2)cc1OC [Example 60, (2E,4Z)-5-chloro-5-[7-(3-chloropropoxy)benzofuran-2-yl]penta-2,4-dienoic acid [2-(3,4-dimethoxyphenyl)ethyl]amide]
  melting point: 149 to 150 °C

## C/C(=C\C(=O)N1CCOCC1)c1ccc2oc(C(=O)c3ccccc3)cc2c1 [Example 25, (E)-3-(2-benzoylbenzofuran-5-yl)-1-morpholino-2-buten-1-one]
  melting point: 115.5 to 117 °C

## COc1cccc2c(NC(=O)c3cnoc3C)c(C(=O)c3ccc(Cl)cc3)oc12 [Example 82, N-[2-(4-chlorobenzoyl)-7-methoxybenzofuran-3-yl]-5-methylisoxazole-4-carboxamide]
  melting point: 237.4 to 239.5 °C

## CCOC(=O)C(CSCc1ccccc1)NC(=O)/C=C/C=C(\Cl)c1cc2cc(Br)ccc2o1 (stereo not shown) [Example 64, Ethyl (2E,4Z)-3-benzylsulfanyl-2-[5-(5-bromobenzofuran-2-yl)-5-chloropenta-2,4-dienoylamino]propionate]
  melting point: 133.7 to 135.4 °C

## COc1cccc2c(NC(=O)/C(C#N)=C(/C)O)c(C(C)=O)oc12 [Example 102, (Z)-N-(2-acetyl-7-methoxybenzofuran-3-yl)-2-cyano-3-hydroxy-2-butenamide]
  melting point: 207.2 to 208.9 °C

## CC(=O)c1oc2ccc(Br)cc2c1NC(=O)/C=C/CCc1ccccc1 [Example 175, (E)-5-phenyl-2-penteneoic acid (2-acetyl-5-bromobenzofuran-3-yl)amide]
  melting point: 129 to 131 °C

## N#CCC(=O)Nc1c(C(=O)c2ccc(Cl)cc2)oc2ccc(Br)cc12 [Example 197, N-[5-bromo-2-(4-chlorobenzoyl)benzofuran-3-yl]-2-cyanoacetamide]
  melting point: 245.4 to 249.5 °C

## COc1ccc(/C=C/C(=O)Nc2c(C(C)=O)oc3ccc(Br)cc23)cc1 [Example 178, (E)-N-(2-acetyl-5-bromobenzofuran-3-yl)-3-(4-methoxyphenyl)acrylamide]
  melting point: 182.5 to 184.7 °C

## CC(=O)c1oc2ccccc2c1NC(=O)c1cnoc1C [Example 69, N-(2-acetylbenzofuran-3-yl)-5-methylisoxazole-4-carboxamide]
  melting point: 174 to 177 °C

## COc1ccc2oc(-c3csc(C)n3)c(-c3ccc(Cl)cc3)c2c1 [Example 217, 4-[3-(4-chlorophenyl)-5-methoxybenzofuran-2-yl]-2-methylthiazole]
  melting point: 105.8 to 106.5 °C

## CCNS(=O)(=O)c1ccc(OCCCC(=O)O)c2oc(C(C)NC(=O)/C(C#N)=C(\C)O)cc12 (stereo not shown) [Example 129, (E)-4-{2-[1-(2-cyano-3-hydroxy-2-butenoylamino)ethyl]-4-ethylsulfamoylbenzofuran-7-yloxy}butyric acid]
  melting point: 169.3 to 170.2 °C

## COc1ccc(CCNC(=O)/C=C(\C)c2ccc3oc(C(=O)c4ccccc4)cc3c2)cc1OC [Example 24, (E)-3-(2-benzoylbenzofuran-5-yl)-N-[2-(3,4-dimethoxyphenyl)ethyl]-2-butenamide]
  melting point: 126.9 to 129.4 °C

## COc1ccc(C(=O)Nc2c(Cl)oc3ccc(Br)cc23)cc1 [Example 200, N-(5-bromo-2-chlorobenzofuran-3-yl)-4-methoxybenzamide]
  melting point: 195.5 to 197 °C

## CCOC(=O)/C=C/C=C(\Cl)c1cc2cc(Br)ccc2o1 [Example 159, Ethyl (2E,4Z)-5-(5-bromobenzofuran-2-yl)-5-chloropenta-2,4-dienoate]
  melting point: 109 to 113 °C

## COc1cccc2c(NC(C)=O)c(C(C)=O)oc12 [Example 208, N-(2-acetyl-7-methoxybenzofuran-3-yl)acetamide]
  melting point: 206.6 to 209.5 °C

## COc1cccc2c(NC(=O)/C=C/c3ccccc3)c(C(=O)c3ccc(Br)cc3)oc12 [Example 179, (E)-N-[2-(4-bromobenzoyl)-7-methoxybenzofuran-3-yl]-3-phenylacrylamide]
  melting point: 236.5 to 237.8 °C

## CC(=O)c1cc2cc(/C(C)=C/C(=O)N3CCOCC3)ccc2o1 [Example 27, (E)-3-(2-acetylbenzofuran-5-yl)-1-morpholino-2-buten-1-one]
  melting point: 138.9 to 141.8 °C

## C/C(O)=C(\C#N)C(=O)Nc1c(C#N)oc2ccccc12 [Example 105, (Z)-N-(2-cyanobenzofuran-3-yl)-2-cyano-3-hydroxy-2-butenamide]
  melting point: 165.8 to 167.2 °C

## COc1ccc(/C=C/C(=O)c2oc3ccc(Br)cc3c2NC(=O)CCNCc2ccccc2)cc1 [Example 203, (E)-3-benzylamino-N-{5-bromo-2-[3-(4-methoxyphenyl)acryloyl]benzofuran-3-yl}propionamide]
  melting point: 123.8 to 126.5 °C

## CCN(CC)C(=O)/C=C(\C)c1ccc2oc(C(=O)c3ccc(C#N)cc3)c(NC(=O)/C(C#N)=C(/C)O)c2c1 [Example 109, N-[2-(4-cyanobenzoyl)-5-((E)-2-diethylcarbamoyl-1-methylvinyl)benzofuran-3-yl]-2-cyano-3-hydroxy-(Z)-2-butenamide]
  melting point: 219.5 to 222.8 °C

## CCOC(=O)c1oc2ccccc2c1NC(=O)c1cnoc1C [Example 68, Ethyl 3-[(5-methylisoxazole-4-carbonyl)amino]benzofurane-2-carboxylate]
  melting point: 166 to 168.2 °C

## CC(=O)c1oc2ccc(/C(C)=C/C(=O)N3CCOCC3)cc2c1N [Example 23, (E)-3-(2-acetyl-3-aminobenzofuran-5-yl)-1-morpholino-2-buten-1-one]
  melting point: 256.4 to 262.1 °C

## COc1ccc(CCNC(=O)/C=C(\C)c2ccc(C(=O)c3oc4c(OC)cccc4c3NC(=O)c3cnoc3C)cc2)cc1OC [Example 84, (E)-N-[2-(4-{2-[2-(3,4-dimethoxyphenyl)ethylcarbamoyl]-1-methylvinyl}benzoyl)-7-methoxybenzofuran-3-yl]-5-methylisoxazole-4-carboxamide]
  melting point: 237.5 to 239.1 °C

## COc1cccc2c(NC(=O)CCl)c(C(C)=O)oc12 [Example 205, N-(2-acetyl-7-methoxybenzofuran-3-yl)-2-chloroacetamide]
  melting point: 186.2 to 188.3 °C

## Cc1oncc1C(=O)Nc1c(C(=O)c2ccc(C#N)cc2)oc2ccc(Br)cc12 [Example 73, N-[5-bromo-2-(4-cyanobenzoyl)benzofuran-3-yl]-5-methylisoxazole-4-carboxamide]
  melting point: 236.3 to 238.9 °C
